From PMC6006426, “Effect of tyrosine kinase inhibitors on renal handling of creatinine by MATE1” (Scientific Reports, 2018)
Read-outs that look alike come from different tables or passages of the source.

What was measured:
human OCT2 = target: T1, human OCT2 (Homo sapiens, UniProt O15244); experiment: Inhibition of [14C]creatinine uptake by HEK293/OCT2 cells; assay type: cell-based; settings: for IC50: 37 °C, pre/co-incubation, unit inferred, read-out: IC50 or Ki, OCT2
T1 construct: expressed in transfected cells; host or cells: HEK293
T1 sequence (O15244 1-555): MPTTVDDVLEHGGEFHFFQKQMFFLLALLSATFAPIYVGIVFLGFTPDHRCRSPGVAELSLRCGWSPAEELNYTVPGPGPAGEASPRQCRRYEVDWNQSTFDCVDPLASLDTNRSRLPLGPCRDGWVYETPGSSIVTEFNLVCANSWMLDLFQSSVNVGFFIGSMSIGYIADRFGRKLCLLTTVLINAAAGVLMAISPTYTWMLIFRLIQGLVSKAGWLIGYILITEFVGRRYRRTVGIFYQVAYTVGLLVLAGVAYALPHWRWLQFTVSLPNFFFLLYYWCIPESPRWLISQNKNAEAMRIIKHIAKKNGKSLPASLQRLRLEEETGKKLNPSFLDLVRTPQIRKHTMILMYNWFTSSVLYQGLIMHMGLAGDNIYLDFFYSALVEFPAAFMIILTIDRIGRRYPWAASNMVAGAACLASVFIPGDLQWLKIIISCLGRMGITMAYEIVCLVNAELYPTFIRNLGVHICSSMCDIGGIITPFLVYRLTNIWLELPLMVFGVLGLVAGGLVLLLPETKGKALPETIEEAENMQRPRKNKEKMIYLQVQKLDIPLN
Procedure: (§1) Cells were cultured in Dulbecco’s modified Eagle’s medium (DMEM) supplemented with 10% fetal bovine serum, 100 units/ml penicillin, 100 μg/ml streptomycin, 1 mM pyruvic acid, and 100 μg/ml zeocin for HEK293/OCT2 cells or 400 μg/mL G418 for HEK293/MATE1 and MDCKII/MATE1 cells at 37 °C in a humidified atmosphere of 5% CO2 in air.
The cells were incubated at 37 °C.
Experiments were conducted at least twice, and the results are shown as representative values in individual experiments. Uptake by transporter-expressing cells was expressed as the cell-to-medium (C/M) ratio (μL/mg protein), obtained by dividing the uptake amount by the concentration of substrate in the TM. MATE1- or OCT2-mediated uptake was obtained after subtraction of the uptake by mock cells.

[1] = Tissue accumulation (Kp,uu) of TKIs in rat kidney slices; assay type: in vitro ADME; settings: male, Wistar, rat kidney slices (0.3 mm thick), pH 7.4, TKI 1 μM, 120 min, C/M ratio 37 °C / 4 °C, mean ± S.E.M. (n = 3 or 4)
Procedure: Male Wistar rats (180 ± 10 g body weight) were purchased from Japan SLC (Hamamatsu, Japan). Rats were housed three per cage with free access to commercial chow and tap water, and were maintained on a 12 h dark/light cycle in an air-controlled room (temperature, 24.0 ± 1 °C; humidity, 55 ± 5%).
Uptake study by rat kidney slices was carried out as described previously, with slight modifications. Whole kidneys of male rats were sliced (0.3 mm thick) with a microslicer (Zero 1; Dosaka EM, Kyoto, Japan). […] Three or four slices per rat, each weighing 5 to 20 mg, were randomly selected and pre-incubated in a 12-well plate with 2.0 ml/well of oxygenated transport buffer at 37 °C for 5 min. After pre-incubation, the kidney slices were placed in transport buffer containing TKIs to initiate the uptake reaction. After uptake at 37 °C for an appropriate time, each slice was rapidly removed from the transport buffer, washed twice in ice-cold transport buffer, blotted on filter paper and weighed. Non-specific adsorption of each substrate was estimated as the absorption on a slice incubated at 4 °C for 1 min. The tissue accumulation of TKIs was measured by liquid chromatography-tandem mass spectrometry (LC-MS/MS) as described below.
The unbound renal proximal tubule epithelial cell-to-medium concentration ratio (Kp,uu) based on the steady-state uptake at 37 °C and 4 °C was defined according to Eq. (4);4 Kp,uu=C/Mratioss,37 °C/C/Mratioss,4 °C
Kp,uu was calculated by dividing C/Mratioss,37 °C by the mean value of C/Mratioss,4 °C .

[2] = Clinical plasma pharmacokinetic parameters of TKIs; assay type: in vivo, human; settings: for Cmax,u: calculated unbound plasma concentration (Cmax x fu) from cited clinical parameters; for Ctrough,u: calculated unbound trough plasma concentration from cited clinical parameters
Excerpt: Table 2 Pharmacokinetic parameters and obtained IC50, Ki, and Kp,uu values of TKIs. | column: Cmax,u (μM) Ctrough,u (μM)

OCT2 and MATE1 = settings: for Prediction of SCr increase, Cmax,u: based on Cmax,u (Kp,uu assumed 1), mean ± S.D. (n = 11 subjects' parameters from ref 10); for Prediction of SCr increase, Cmax,u · Kp,uu: based on Cmax,u with Kp,uu incorporated; for Prediction of SCr increase, Cmax,u · Kp,uu / Prediction of SCr increase, Ctrough,u / Prediction of SCr increase, Ctrough,u · Kp,uu: mean ± S.D. (n = 11); for Prediction of SCr increase, Ctrough,u: based on Ctrough,u (Kp,uu assumed 1); for Prediction of SCr increase, Ctrough,u · Kp,uu: based on Ctrough,u with Kp,uu incorporated
Excerpt: In this model, the intrinsic clearances of OCT2 and MATE1 were assumed to be equal. When MATE1 inhibition was predicted from the Cmax,u of drugs, Kp,uu was assumed to be 1.

[3] = design: method as in earlier work; settings: 34-43 (per drug), cited from earlier work; for t1/2: clinical half-life; for Cmax: maximum plasma concentration, clinical dosing: crizotinib 250 mg twice a day, gefitinib 250 mg, imatinib 400 mg, pazopanib 800 mg, sorafenib 400 mg, sunitinib 50 mg once a day; for Ctrough: trough plasma concentration, clinical dosing as in table footnote
[4] = design: method as in earlier work; settings: unbound fraction in plasma; 34-43 (per drug); cited from earlier work
human MATE1 = target: T2, human MATE1 (Homo sapiens, UniProt Q96FL8); experiment: Inhibition of [14C]creatinine uptake by HEK293/MATE1 cells; assay type: cell-based
T2 construct: expressed in transfected cells; host or cells: HEK293
T2 sequence (Q96FL8 1-570): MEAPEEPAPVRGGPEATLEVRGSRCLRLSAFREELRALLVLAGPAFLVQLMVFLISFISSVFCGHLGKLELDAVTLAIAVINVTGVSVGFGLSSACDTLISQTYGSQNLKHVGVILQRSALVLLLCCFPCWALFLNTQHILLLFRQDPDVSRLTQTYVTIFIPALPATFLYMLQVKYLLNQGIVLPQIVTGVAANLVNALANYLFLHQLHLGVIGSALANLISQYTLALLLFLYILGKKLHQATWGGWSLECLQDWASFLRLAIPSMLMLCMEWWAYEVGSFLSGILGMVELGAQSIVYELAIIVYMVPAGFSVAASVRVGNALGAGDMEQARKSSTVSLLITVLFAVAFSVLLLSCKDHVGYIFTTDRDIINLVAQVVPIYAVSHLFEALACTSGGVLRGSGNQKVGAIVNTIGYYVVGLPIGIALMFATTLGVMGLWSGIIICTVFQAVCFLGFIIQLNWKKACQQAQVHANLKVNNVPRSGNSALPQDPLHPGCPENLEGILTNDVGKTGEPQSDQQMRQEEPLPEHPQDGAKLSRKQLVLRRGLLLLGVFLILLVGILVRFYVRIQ
Procedure: as §1
The cells were incubated at 37 °C.
Uptake by transporter-expressing cells was expressed as the cell-to-medium (C/M) ratio (μL/mg protein), obtained by dividing the uptake amount by the concentration of substrate in the TM. MATE1- or OCT2-mediated uptake was obtained after subtraction of the uptake by mock cells.
Kinetic parameters for uptake were obtained using the Michaelis-Menten Eq. (2);2 v=Vmax×[C]/Km+[C] where v, Vmax, Km, and [C] are initial uptake rate, maximal uptake rate, Michaelis constant, and substrate concentration, respectively.

[5] = patients treated with crizotinib, n = 38, 95% CI 21.3–[…]; cited from earlier work
creatinine transporters = settings: cited from earlier work
MATE2K = target: T3, MATE2K (Homo sapiens, UniProt Q86VL8); experiment: Uptake of MPP+ by HEK293/MATE2K and mock cells; assay type: cell-based
T3 construct: expressed in transfected cells; host or cells: HEK293
T3 sequence (Q86VL8 1-566 isoform Q86VL8-3): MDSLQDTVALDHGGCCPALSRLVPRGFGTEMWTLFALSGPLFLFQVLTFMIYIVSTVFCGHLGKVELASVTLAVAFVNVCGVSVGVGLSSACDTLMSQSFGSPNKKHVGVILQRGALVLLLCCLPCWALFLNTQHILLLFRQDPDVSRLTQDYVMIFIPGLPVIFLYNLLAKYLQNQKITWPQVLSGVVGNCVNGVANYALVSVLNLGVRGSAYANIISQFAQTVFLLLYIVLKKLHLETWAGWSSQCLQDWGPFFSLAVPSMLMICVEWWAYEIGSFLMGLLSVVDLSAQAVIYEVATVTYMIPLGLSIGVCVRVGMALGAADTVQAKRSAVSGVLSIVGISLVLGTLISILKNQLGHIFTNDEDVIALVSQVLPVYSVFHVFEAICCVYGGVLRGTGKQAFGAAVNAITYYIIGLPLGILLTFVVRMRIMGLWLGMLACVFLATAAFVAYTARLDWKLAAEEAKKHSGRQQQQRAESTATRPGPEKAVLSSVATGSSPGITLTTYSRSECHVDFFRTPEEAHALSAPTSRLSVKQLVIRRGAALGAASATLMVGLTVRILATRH
Procedure: The uptake experiment was conducted as described previously. HEK293 cells were plated at a density of 1.7 × 10^5 cells/cm^2 on 24-well plates and cultured for two days before uptake assay. The cells were pre-incubated with 0.5 ml of transport medium (TM) (125 mM NaCl, 4.8 mM KCl, 1.2 mM KH2PO4, 1.2 mM CaCl2, 1.2 mM MgSO4, 5.6 mM D-glucose, and 25 mM HEPES, pH 7.4) for an appropriate time at 37 °C. Cells for MATE1 assays were pre-incubated in TM containing 30 mM NH4Cl for 20 min to establish an outwardly directed H^+ gradient; this was done concomitantly with the pre-incubation with TKIs. […] Uptake was terminated by washing the cells three times with 0.5 ml of ice-cold TM, and the cells were solubilized in 0.25 ml of 0.01% (v/v) Triton-X. Radioactivity was measured with a liquid scintillation counter (Hitachi Aloka Medical, Ltd., Tokyo, Japan). […] Uptake was terminated by washing the cells three times with ice-cold TM, and intracellular [^14C]creatinine concentration was determined by the method described above.
Experiments were conducted at least twice, and the results are shown as representative values in individual experiments. Uptake by transporter-expressing cells was expressed as the cell-to-medium (C/M) ratio (μL/mg protein), obtained by dividing the uptake amount by the concentration of substrate in the TM. […]

Row | Structure (SMILES) | Kp uu at 2 h, 1 μM [1] | Cmax,u [2] | Prediction of SCr increase, Cmax,u (OCT2 and MATE1) | Prediction of SCr increase, Cmax,u · Kp,uu (OCT2 and MATE1) | Prediction of SCr increase, Ctrough,u (OCT2 and MATE1) | Prediction of SCr increase, Ctrough,u · Kp,uu (OCT2 and MATE1) | t1/2 [3] | Cmax [3] | Ctrough [3] | fu [4] | further results
1 | CCN(CC)CCNC(=O)c1c(C)[nH]c(/C=C2\C(=O)Nc3ccc(F)cc32)c1C [Sunitinib, sunitinib] | 3.93 ± 0.15 | 6.8 nM | 1.65 ± 0.92% | 2.73 ± 1.10% | 1.19 ± 0.87% | 1.86 ± 0.95% | 40 to 60 h | 136 nM | 82.9 nM | – | IC50 (human OCT2; [14C]creatinine 2.6 μM, 1 min): 0.266 ± 0.03 µM; Ctrough,u [2]: 4.14 nM
2 | CNC(=O)c1cc(Oc2ccc(NC(=O)Nc3ccc(Cl)c(C(F)(F)F)c3)cc2)ccn1 [Sorafenib, sorafenib] | 2.76 ± 0.27 | – | 1.47 ± 0.90% | 3.10 ± 1.17% | – | – | 28.1 h | 14600 nM | – | 0.0029 | IC50 (human OCT2; [14C]creatinine 2.6 μM, 1 min): 40.8 ± 9.3 µM
3 | Cc1ccc(Nc2nccc(N(C)c3ccc4c(C)n(C)nc4c3)n2)cc1S(N)(=O)=O [Pazopanib, pazopanib] | 2.05 ± 0.14 | 10.1 nM | 1.16 ± 0.87% | 1.86 ± 0.95% | 0.837 ± 0.842% | 1.22 ± 0.87% | 30.9 h | 95100 nM | 50600 nM | 0.000106 | IC50 (human MATE1; [14C]creatinine 2.6 μM, 2 min, 37 °C, pre/co-incubation, unit inferred, read-out: IC50 or Ki, MATE1): 0.47 ± 0.032 µM; Ctrough/IC50 or Ki, MATE1 (human MATE1; ratio of trough (unbound) concentration to IC50 or Ki for MATE1): 0.0114; Inhibition of [14C]creatinine uptake by HEK293/OCT2 cells (in words) (human OCT2; pazopanib 1, 3, 10, 30 μM, [14C]creatinine 2.6 μM, 1 min): not by pazopanib; Ctrough/IC50 or Ki, OCT2 (human OCT2; ratio of trough (unbound) concentration to IC50 or Ki for OCT2): 0.0000386
4 | COc1cc2ncnc(Nc3ccc(F)c(Cl)c3)c2cc1OCCCN1CCOCC1 [Gefitinib, gefitinib] | 2.22 ± 0.05 | 93.6 nM | 2.47 ± 1.05% | – | – | – | 23.8 h | 1040 nM | – | 0.09 | –
5 | C[C@@H](Oc1cc(-c2cnn(C3CCNCC3)c2)cnc1N)c1c(Cl)ccc(F)c1Cl [Crizotinib, crizotinib] | – | 84.8 nM | 14.5 ± 4.6% | 25.3 ± 8.8% | 11.7 ± 3.6% | 21.1 ± 7.1% | – | – | 708 nM | 0.093 | Ctrough,u [2]: 65.8 nM; Prediction of SCr increase, Cmax,u (OCT2 and MATE1; listed as crizotinib): 14.5%; Prediction of SCr increase, Cmax,u · Kp,uu (OCT2 and MATE1; listed as crizotinib): 25.3%; Predicted increase of SCr in the clinical context (OCT2 and MATE1; summary statement of the prediction): more than 10%; Clinically reported eGFR reduction [5]: 23.9%
6 | COc1c(N2CC[C@@H](C3(N)CC3)C2)ccc2c(=O)c(C(=O)O)cn([C@@H]3C[C@@H]3F)c12 [DX-619] | – | – | – | – | – | – | – | – | – | – | Reduction of creatinine clearance (creatinine transporters): up to 51.4%
7 | Cc1ccc(NC(=O)c2ccc(CN3CCN(C)CC3)cc2)cc1Nc1nccc(-c2cccnc2)n1 [Imatinib, imatinib] | 2.39 ± 0.29 | – | – | – | – | – | – | – | – | – | –
8 | CC(=O)[O-].C[n+]1ccc(-c2ccccc2)cc1 [MPP^+, N-methyl-4-phenylpyridinium acetate] | – | – | – | – | – | – | – | – | – | – | Uptake of MPP+ by HEK293/MATE2K cells (MATE2K; HEK293/MATE2K cells): 19.1 μL/mg/1 min; Uptake of MPP+ by mock cells (MATE2K; mock cells): 5.76 μL/mg/1 min
